The results in this text go back to patent US8258160B2, “SCD1 inhibitors triazole and tetrazole compounds” (Novartis AG, priority 2006, dated 2012).

Data set [1] concerns the target T1, stearoyl-CoA desaturase (SCD1) (Mus musculus, UniProt P13516).
T1 construct: Reactions are started by adding 50 μL of microsomes (1.25 mg/mL); from tissue; host or cells: liver microsomes of male ICR outbred mice on a high-carbohydrate, low-fat diet
T1 sequence (P13516 1-355): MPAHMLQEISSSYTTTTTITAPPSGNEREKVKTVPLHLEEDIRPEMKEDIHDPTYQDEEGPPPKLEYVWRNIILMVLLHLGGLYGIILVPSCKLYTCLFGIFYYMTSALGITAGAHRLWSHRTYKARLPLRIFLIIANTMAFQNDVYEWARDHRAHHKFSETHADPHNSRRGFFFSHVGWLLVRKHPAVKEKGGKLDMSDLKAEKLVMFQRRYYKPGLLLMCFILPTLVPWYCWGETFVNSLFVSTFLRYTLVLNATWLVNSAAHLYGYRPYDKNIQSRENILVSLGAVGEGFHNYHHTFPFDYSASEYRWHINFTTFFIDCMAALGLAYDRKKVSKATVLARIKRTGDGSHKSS
Put plainly: SCD microsomal assay: release of 3H2O from [9,10-3H]stearoyl-CoA in mouse liver microsomes. The data set is classed as biochemical. The settings on record: 15 min incubation, 25° C. The text has this: The identification of compounds of the invention as SCD inhibitors was readily accomplished using the SCD enzyme and microsomal assay procedure described in Shanklin J. and Summerville C., Proc. Natl. Acad. Sci. USA (1991), Vol. 88, pp. 2510-2514.
The identification of compounds of the invention as SCD inhibitors was readily accomplished using the SCD microsomal assay procedure described in Shanklin J. and Summerville C., Proc. Natl. Acad. Sci. USA (1991), Vol. 88, pp. 2510-2514.
Male ICR outbread mice, on a high-carbohydrate, low fat diet, under light halothane (15% in mineral oil) anesthesia are sacrificed by exsanguination during periods of high enzyme activity. Livers are immediately rinsed with cold 0.9% NaCl solution, weighed and minced with scissors. All procedures are performed at 4° C. unless specified otherwise. Livers are homogenized in a solution (1/3 w/v) containing 0.25 M sucrose, 62 mM potassium phosphate buffer (pH 7.0), 0.15 M KCl, 15 mM N-acetylcysteine, 5 mM MgCl2, and 0.1 mM EDTA using 4 strokes of a Potter-Elvehjem tissue homogenizer. The homogenate is centrifuged at 10,400×g for 20 min to eliminate mitochondria and cellular debris. The supernatant is filtered through a 3-layer cheesecloth and centrifuged at 105,000×g for 60 min. The microsomal pellet is gently resuspended in the same homogenization solution with a small glass/teflon homogenizer and stored at −70° C. The absence of mitochondrial contamination is enzymatically assessed. The protein concentration is measured using bovine serum albumin as the standard.
Desaturase activity is measured as the release of ^3H2O from [9,10-^3H]stearoyl-CoA. Reactions per assay point conditions are as follows: 2 μL 1.5 mM stearoyl-CoA, 0.25 μL 1 mCi/mL ^3H stearoyl CoA, 10 μL 20 mM NADH, 36.75 μL 0.1 M PK buffer (K2HPO4/NaH2PO4, pH 7.2). The test compound or control solution is added in a 1 μL volume. Reactions are started by adding 50 μL of microsomes (1.25 mg/mL). The plates are mixed and after 15 min incubation on a heating block (25° C.), the reactions are stopped by the addition of 10 μL 60% PCA. An aliquot of 100 μL is then transferred to a filter plate pretreated with charcoal and the plate centrifuged at 4000 rpm for 1 min. The flow through containing the ^3H2O released by the SCD1 desaturation reaction is added to scintillation fluid and the radioactivity measured in a Packard TopCount. The data is analysed to identify the IC50 for test compounds and reference compounds. […] The activity was defined in terms of % SCD enzyme activity remaining at the desired concentration of the test compound or as the IC50 concentration. The IC50 (affinity) of the example compounds toward the stearoyl-CoA desaturase is comprised between around 20 μM and 0.0001 μM or between around 5 μM and 0.0001 μM or between around 1 μM and 0.0001 μM.
(Liver microsomes are vesicles of endoplasmic reticulum, rich in cytochrome P450 enzymes.)

The structures appear in SMILES notation.

The term IC50 denotes the concentration needed to halve the response being measured. Higher therefore signals weaker potency in that assay. In general, melting point refers to the temperature of the solid-liquid transition.

`Cc1nc(-c2cn(CCc3ccc(F)cc3)nn2)sc1C(=O)NCc1ccccc1` [Example 1, N-benzyl-2-(1-(4-fluorophenethyl)-1H-1,2,3-triazol-4-yl)-4-methylthiazole-5-carboxamide]: the melting point lay within 181 to 182 °C. The compound further showed an IC50 in data set [1] of 20 nM.

Turning to `Cc1nc(-c2nnn(Cc3ccc(F)cc3)n2)sc1C(=O)NCc1cccnc1` (single isomer, unassigned) [Example 7.1, 2-(2-(4-Fluorobenzyl)-2H-tetrazol-5-yl)-4-methyl-N-(pyridin-3-ylmethyl)thiazole-5-carboxamide], the melting point lay in the range of 148 to 149 °C. The IC50 in data set [1] is 510 nM.

Compound `Cc1nc(-c2nnn(CC3CC3)n2)sc1C(=O)NCc1cccnc1` (single isomer, unassigned) [Example 7.3, 2-(2-(Cyclopropylmethyl)-2H-tetrazol-5-yl)-4-methyl-N-(pyridin-3-ylmethyl)thiazole-5-carboxamide] had a melting point of 149 to 150 °C. This compound registered a half-inhibitory concentration (IC50) in data set [1] of 310 nM.

Turning to `Cc1nc(-n2cc(CCC3CCCCC3)nn2)sc1C(=O)NCc1ccccc1` [Example 10.14, N-benzyl-2-(4-(2-cyclohexylethyl)-1H-1,2,3-triazol-1-yl)-4-methylthiazole-5-carboxamide], the melting point lay in the range of 82 to 84 °C. Besides, the IC50 in data set [1] is 240 nM.

With `Cc1nc(-n2cc(C(=O)NCc3ccc(F)cc3)nn2)sc1C(=O)NCc1ccccc1` [Example 18.1, N-benzyl-2-(4-(4-fluorobenzylcarbamoyl)-1H-1,2,3-triazol-1-yl)-4-methylthiazole-5-carboxamide], the melting point is 198 to 201 °C. For the same compound, the IC50 in data set [1] came out at 10 nM.

The compound `Cc1nc(-n2cc(Cc3ccccc3)nn2)sc1C(=O)NCc1ccccc1` [Example 10.1, N-benzyl-2-(4-benzyl-1H-1,2,3-triazol-1-yl)-4-methylthiazole-5-carboxamide] yielded a melting point of 139 to 141 °C. In addition, inhibition in data set [1] was half-maximal at 60 nM (IC50).

`Cc1nc(-c2nnnn2Cc2ccc(C(F)(F)F)cc2)sc1C(=O)NCc1cccnc1` (single isomer, unassigned) [Example 7.2, 4-Methyl-N-(pyridin-3-ylmethyl)-2-(1-(4-(trifluoromethyl)benzyl)-1H-tetrazol-5-yl)thiazole-5-carboxamide] had a melting point of 175 to 176 °C. This compound showed a half-inhibitory concentration (IC50) in data set [1] of 160 nM.

In turn, `Cc1nc(-c2cc(Cc3ccccc3)no2)sc1C(=O)NCc1ccccc1` [Example 27, N-benzyl-2-(3-benzylisoxazol-5-yl)-4-methylthiazole-5-carboxamide] came in with a melting point of 103 to 104 °C. In addition, the midpoint of inhibition in data set [1], the IC50, lay at 600 nM.

`Cc1nc(-c2cn(CCc3ccc(F)cc3)nn2)sc1C(=O)NCc1cccnc1` [Example 4.3, 2-(1-(4-fluorophenethyl)-1H-1,2,3-triazol-4-yl)-4-methyl-N-(pyridin-3-ylmethyl)thiazole-5-carboxamide] returned a melting point of 149 to 150 °C. In data set [1], this compound gave an IC50 of 120 nM.

Compound `Cc1nc(-c2cn(Cc3ccccc3)nn2)sc1C(=O)NCc1ccccc1` [Example 1.1, N-benzyl-2-(1-benzyl-1H-1,2,3-triazol-4-yl)-4-methylthiazole-5-carboxamide] showed a melting point of 108 to 109 °C. In data set [1], inhibition was half-maximal at 30 nM (IC50).

`Cc1cc(-c2n[nH]c(Cc3ccccc3)n2)sc1C(=O)NCc1cccnc1` [Example 26, 5-(5-benzyl-1H-1,2,4-triazol-3-yl)-3-methyl-N-(pyridin-3-ylmethyl)thiophene-2-carboxamide]: the melting point was 82 °C (dec.). In data set [1], this compound yielded an IC50 of 300 nM.
